Test results reported in PMC6449043 (ACS chemical biology, 2018).

Molecular target: ndSQR (sulfide quinone oxidoreductase in nanodiscs) (Homo sapiens, UniProt Q9Y6N5)
Assay: spectral titration of charge-transfer complex at […] nm
Assay type: binding

Sequence of ndSQR (sulfide quinone oxidoreductase in nanodiscs) (Q9Y6N5 42-450): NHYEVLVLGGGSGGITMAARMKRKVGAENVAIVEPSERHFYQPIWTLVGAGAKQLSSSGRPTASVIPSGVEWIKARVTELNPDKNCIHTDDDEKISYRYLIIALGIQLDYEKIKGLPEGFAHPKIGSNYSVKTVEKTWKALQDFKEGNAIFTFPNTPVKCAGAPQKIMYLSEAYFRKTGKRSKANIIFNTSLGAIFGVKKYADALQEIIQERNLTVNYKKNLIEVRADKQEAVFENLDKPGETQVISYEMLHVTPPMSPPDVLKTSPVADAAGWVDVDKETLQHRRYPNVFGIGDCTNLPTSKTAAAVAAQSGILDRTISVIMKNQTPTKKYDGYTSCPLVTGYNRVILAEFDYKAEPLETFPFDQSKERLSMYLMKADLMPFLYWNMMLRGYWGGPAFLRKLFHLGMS

`CS` [MeSH] showed a Kd of 38 ± 1 µM.
